Measured values reported in patent publication US5583142A, “Analgesic and nootropic drugs” (priority 1992, dated 1996).
Several values for one entry are separate records, joined by “and”; a condition that tells them apart may be missing. Equal values may be shown once. Read-outs that look alike come from different tables or passages of the source.

Tests used:
rat paw-pressure test = format: in vivo
Description: (§1) The analgesic action was detected in mouse, rat, guinea pig and dog. The mouse was subjected to hot plate and writhing tests; the rat to tail-flick and paw-pressure tests; the guinea pig to paw-pressure test only; the dog to the test described by Vainio et al. [J. Vet. Pharmacol. Ther., 12, 225-231 (1989)] using an electric stimulation. Consequently, the claimed compounds were tested with pain being induced by stimuli of different nature: thermal (hot plate and tail flick), chemical (writhing by acetic acid), mechanical (paw pressure) and electrical (cutaneous stimulation).
(§2) As already mentioned, the claimed products were assayed also in rat by the paw-pressure and tail-flick tests.
(§3) Both tests were carried out with the max. doses not impairing the rats normal behaviour. […] The painful stimulus utilized in the paw-pressure test involved the animal consciousness to a much greater extent than the stimulus used in the tail-flick test, in fact, the type and anatomic localization of the latter mainly involved a spinal response.
(§4) Both tests on rats were carried out with the max. doses not altering the behaviour of the treated animals.

[1] = mouse acetic acid writhing test; format: in vivo; conditions: for efficacy in writhing test, in words / number of writhes / Efficacy as analgesic (Morphine = 100) / percent inhibition: mouse; for Efficacy as analgesic (Morphine = 100) / percent inhibition: writhing; for ED50: mouse writhing
Description: as §1
The claimed molecules, chosen as examples, were also assayed in mice by the writhing test (Table 4). The test is meant to evaluate the products capability to prevent mice writhes ensuing abdominal pains caused by i.p. injection of a 0.6% aqueous solution of acetic acid.
Acetic acid solution = 0.6% v/v.

[2] = mouse rota-rod test (16 r.p.m.)
Excerpt: All products tested to detect their antinociceptive activity had been previously tested by the rota-rod test to determine their maximum utilizable dose in analgesic tests. In fact, by this test it is possible to determine the highest dose of drug not impairing the normal performance of animals in a test that simultaneously evaluates motor coordination, equilibrium, resistance to fatigue, and muscle strength. This test is meant to evaluate the capability of mice to stay balanced on a rotating rod [cf. Vaught et al., Neuropharmacology, 24 (3) 211-216 (1985)].
The calculated doses were those used in the two analgesic tests on mice.

[3] = format: in vivo, mouse
Description: as §1
(§5) Potency, efficacy and toxicity of SM21, PG9 and SM32 in comparison with
(§6) four principal reference analgesic drugs tested in mouse. As analgesic

rat tail-flick test = format: in vivo
Description: as §1, §2, §3, §4
The test was performed using th

in vivo = conditions: mouse
Excerpt: as §5, §6

[4] = paw-pressure test in rats with a lesion in the nucleus basalis magnocellularis (NBM); format: in vivo, rat; conditions: 4 mg/kg i.p.
Excerpt: 3. […] In fact, as known, the magnocellular basal nucleus destruction causes the degeneration of most central cholinergic system.

[5] = 15 mg/kg i.p., 15 min after treatment
[6] = 15 mg/kg i.p., 30 min after treatment
[7] = 15 mg/kg i.p., 45 min after treatment
[8] = 40 mg/kg s.c., 15 min after treatment
[9] = 40 mg/kg s.c., 30 min after treatment
[10] = 40 mg/kg s.c., 45 min after treatment
[11] = 100 mg/kg i.p., 15 min after treatment
[12] = 100 mg/kg i.p., 30 min after treatment
[13] = 100 mg/kg i.p., 45 min after treatment
[14] = 20 mg/kg i.p., 15 min after treatment
[15] = 20 mg/kg i.p., 30 min after treatment
[16] = 20 mg/kg i.p., 45 min after treatment

With `CN(C)CCOC(c1ccccc1)c1ccccc1` [Diphenhydramine, reference compound] the “activity in paw-pressure test, in words” value (rat paw-pressure test) was “inactive”, the paw-pressure (rat paw-pressure test; [5]) was 72.6 ± 6.8 g and the paw-pressure (rat paw-pressure test; [6]) was 70.0 ± 5.4 g. For the same compound, the paw-pressure (rat paw-pressure test; [7]) was 68.0 ± 6.6 g, the “efficacy in writhing test, in words” value [1] was “far less efficacious” and the number of writhes ([1]; 20 mg/kg s.c.) was 24.6 ± 2.4. For the same compound, the “Efficacy as analgesic (Morphine = 100)” value ([1]; 20 mg/kg s.c.) was 38, the percent inhibition ([1]; 20 mg/kg s.c.) was 28.1% and the ED50 ([1]; sc) was 7.8 mg/kg and 30.5 µmol/kg. The “rota-rod performance (number of falls in 30 s)” value (“rota-rod performance” for short) ([2]; 25 mg/kg s.c., 15 min after treatment) was 2.0 ± 0.5 falls in 30 s, the “rota-rod performance” value ([2]; 25 mg/kg s.c., 30 min after treatment) was 1.0 ± 0.3 falls in 30 s and the “rota-rod performance” value ([2]; 25 mg/kg s.c., 45 min after treatment) was 1.4 ± 0.4 falls in 30 s. The “rota-rod performance” value ([2]; 30 mg/kg s.c., 15 min after treatment) was 2.1 ± 0.4 falls in 30 s, the “rota-rod performance” value ([2]; 30 mg/kg s.c., 30 min after treatment) was 1.5 ± 0.3 falls in 30 s and the “rota-rod performance” value ([2]; 30 mg/kg s.c., 45 min after treatment) was 1.5 ± 0.4 falls in 30 s. The “rota-rod performance” value [2, 8] was 4.3 ± 0.4 falls in 30 s, the “rota-rod performance” value [2, 9] was 3.1 ± 0.4 falls in 30 s and the “rota-rod performance” value [2, 10] was 2.3 ± 0.4 falls in 30 s. The “ED50 compared with claimed compounds” value ([3]; mouse hot plate) was “equivalent to those of the claimed compounds”, the “analgesic efficacy / degree of analgesia compared with claimed compounds” value ([3]; mouse hot plate) was “much lower degree of analgesia” and the “Efficacy as analgesic (Morphine = 100), M.E. (Maximum Analgesic Effect)” value (“Efficacy … (Maximum Analgesic Effect)” below) ([3]; mouse, in vivo) was 43. It also gave a hot-plate latency ([3]; mouse, 20 mg/kg i.p., 15 min after treatment) of 21.6 ± 2.5 s, a hot-plate latency ([3]; mouse, 20 mg/kg i.p., 30 min after treatment) of 17.7 ± 1.6 s and a hot-plate latency ([3]; mouse, 20 mg/kg i.p., 45 min after treatment) of 17.1 ± 1.8 s. For the same compound, the hot-plate latency ([3]; mouse, 20 mg/kg s.c., 15 min after treatment) was 23.6 ± 2.6 s, the hot-plate latency ([3]; mouse, 20 mg/kg s.c., 30 min after treatment) was 18.0 ± 1.4 s and the hot-plate latency ([3]; mouse, 20 mg/kg s.c., 45 min after treatment) was 18.7 ± 2.1 s. For the same compound, the “activity in tail-flick test, in words” value (rat tail-flick test) was “inactive”, the tail-flick (rat tail-flick test; [5]) was 2.9 ± 0.2 s and the tail-flick (rat tail-flick test; [6]) was 2.5 ± 0.2 s. It also gave a tail-flick (rat tail-flick test; [7]) of 2.5 ± 0.1 s.

In the case of `O=C(c1ccccc1)c1ccc2n1CCC2C(=O)O` (stereo not shown) [Ketorolac Trometamine], the “activity in paw-pressure test, in words” value (rat paw-pressure test) is reported as “almost equivalent analgesia”, the paw-pressure (rat paw-pressure test; [11]) is reported as 59.3 ± 5.6 g and the paw-pressure (rat paw-pressure test; [12]) is reported as 97.4 ± 6.2 g. The paw-pressure (rat paw-pressure test; [13]) was 74.6 ± 5.8 g, the ED50 ([1]; ip) was 8.3 mg/kg and 22 µmol/kg and the “efficacy in writhing test, in words” value [1] was “higher than by morphine”. The number of writhes ([1]; 10 mg/kg i.p.) was 6.3 ± 1.4, the number of writhes ([1]; 175 mg/kg i.p.) was 0.3 ± 0.3 and the “Efficacy as analgesic (Morphine = 100)” value ([1]; 10 mg/kg i.p.) was 110. For the same compound, the percent inhibition ([1]; 10 mg/kg i.p.) was 81.6%, the “Efficacy as analgesic (Morphine = 100)” value ([1]; 175 mg/kg i.p.) was 133 and the percent inhibition ([1]; 175 mg/kg i.p.) was 99.1%. The “Efficacy as analgesic (Morphine = 100), AUC (Area Under Curve)” value ([3]; mouse, in vivo) was 46, the “Efficacy … (Maximum Analgesic Effect)” value ([3]; mouse, in vivo) was 55 and the hot-plate latency ([3]; mouse, 175 mg/kg i.p., 15 min after treatment) was 26.5 ± 3.4 s. The hot-plate latency ([3]; mouse, 175 mg/kg i.p., 30 min after treatment) was 19.6 ± 1.4 s, the hot-plate latency ([3]; mouse, 175 mg/kg i.p., 45 min after treatment) was 17.7 ± 1.5 s and the hot-plate latency ([3]; mouse, 175 mg/kg s.c., 15 min after treatment) was 16.3 ± 1.1 s. For the same compound, the hot-plate latency ([3]; mouse, 175 mg/kg s.c., 30 min after treatment) was 15.0 ± 1.2 s, the hot-plate latency ([3]; mouse, 175 mg/kg s.c., 45 min after treatment) was 15.1 ± 1.6 s and the “activity on hot plate, s.c. administration” value ([3]; mouse, s.c.) was “inactive”. For the same compound, the “activity in tail-flick test, in words” value (rat tail-flick test) was “inactive”, the tail-flick (rat tail-flick test; [11]) was 3.3 ± 0.2 s and the tail-flick (rat tail-flick test; [12]) was 3.2 ± 0.2 s. For the same compound, the tail-flick (rat tail-flick test; [13]) was 2.6 ± 0.3 s and the LD50 (in vivo; ip) was 1260 µmol/kg.

For `CCC(Sc1ccccc1)C(=O)O[C@H]1C[C@H]2CC[C@@H](C1)N2C` (stereo partly drawn) [SM-32, 3α-Tropanyl 2-(phenylthio)-butyrate], the “activity in paw-pressure test, in words” value (rat paw-pressure test) was “almost equivalent analgesia”, the paw-pressure (rat paw-pressure test; [14]) was 86.2 ± 4.0 g and the paw-pressure (rat paw-pressure test; [15]) was 92.0 ± 6.1 g. For the same compound, the paw-pressure (rat paw-pressure test; [16]) was 69.0 ± 4.8 g, the “efficacy in writhing test, in words” value [1] was “less efficacious than ketorolac, are more efficacious than morphine” and the number of writhes ([1]; 35 mg/kg s.c.) was 5.5 ± 2.1. For the same compound, the “Efficacy as analgesic (Morphine = 100)” value ([1]; 35 mg/kg s.c.) was 111, the percent inhibition ([1]; 35 mg/kg s.c.) was 83.4% and the ED50 ([1]; sc) was 15.9 mg/kg and 35.7 µmol/kg. The “rota-rod performance” value [2, 8] was 1.2 ± 0.6 falls in 30 s, the “rota-rod performance” value [2, 9] was 1.4 ± 0.3 falls in 30 s and the “rota-rod performance” value [2, 10] was 1.2 ± 0.4 falls in 30 s. For the same compound, the “rota-rod performance” value ([2]; 45 mg/kg s.c., 15 min after treatment) was 2.0 ± 0.3 falls in 30 s, the “rota-rod performance” value ([2]; 45 mg/kg s.c., 30 min after treatment) was 2.3 ± 0.3 falls in 30 s and the “rota-rod performance” value ([2]; 45 mg/kg s.c., 45 min after treatment) was 2.0 ± 0.5 falls in 30 s. The “rota-rod performance” value ([2]; 50 mg/kg s.c., 15 min after treatment) was 1.8 ± 0.4 falls in 30 s, the “rota-rod performance” value ([2]; 50 mg/kg s.c., 30 min after treatment) was 2.6 ± 0.6 falls in 30 s and the “rota-rod performance” value ([2]; 50 mg/kg s.c., 45 min after treatment) was 2.6 ± 0.5 falls in 30 s. For the same compound, the “ANALGESIC ACTIVITY (degree of analgesia, latency on hot plate)” value ([3]; max. dose not affecting mice behaviour) was “++++ (Latency above 35" ++++-)”, the “analgesic effect (AUC up to 45 min) compared with reference compounds” value ([3]; mouse hot plate, FIG. 5, s.c.) was “more active than the reference compounds” and the “Efficacy as analgesic (Morphine = 100), AUC (Area Under Curve)” value ([3]; mouse, in vivo) was 120. For the same compound, the “Efficacy … (Maximum Analgesic Effect)” value ([3]; mouse, in vivo) was 107, the “analgesic effect (AUC up to 45 min) compared with morphine” value ([3]; mouse, in vivo, ip) was “only slightly less active than morphine” and the hot-plate latency ([3]; mouse, 35 mg/kg i.p., 15 min after treatment) was 35.5 ± 3.0 s. The hot-plate latency ([3]; mouse, 35 mg/kg i.p., 30 min after treatment) was 33.5 ± 2.6 s, the hot-plate latency ([3]; mouse, 35 mg/kg i.p., 45 min after treatment) was 24.4 ± 1.9 s and the hot-plate latency ([3]; mouse, 35 mg/kg s.c., 15 min after treatment) was 38.7 ± 3.5 s. The hot-plate latency ([3]; mouse, 35 mg/kg s.c., 30 min after treatment) was 36.4 ± 3.2 s, the hot-plate latency ([3]; mouse, 35 mg/kg s.c., 45 min after treatment) was 25.7 ± 2.9 s and the “activity in tail-flick test, in words” value (rat tail-flick test) was “active”. The tail-flick (rat tail-flick test; [14]) was 3.1 ± 0.5 s, the tail-flick (rat tail-flick test; [15]) was 4.7 ± 0.6 s and the tail-flick (rat tail-flick test; [16]) was 4.3 ± 0.5 s. For the same compound, the LD50 (in vivo; sc) was 584 µmol/kg.

Work on `NCC(CC(=O)O)c1ccc(Cl)cc1` (stereo not shown) [Baclofen, reference compound] yielded a paw-pressure ([4]; lesioned (NBM) rats, 15 min after treatment) of 117.4 ± 6.4 g, a paw-pressure ([4]; lesioned (NBM) rats, 30 min after treatment) of 137.9 ± 4.8 g and a paw-pressure ([4]; lesioned (NBM) rats, 45 min after treatment) of 131.8 ± 5.7 g. The paw-pressure ([4]; sham rats, 15 min after treatment) was 108.7 ± 6.6 g, the paw-pressure ([4]; sham rats, 30 min after treatment) was 132.8 ± 5.9 g and the paw-pressure ([4]; sham rats, 45 min after treatment) was 124.7 ± 5.8 g.
